# Results: patent publication USRE39149E1, “Method of administering azithromycin” (Pfizer Inc., priority 1994, dated 2006)
# Experiment: Stability of azithromycin at acid pH / in stomach juices
# Assay type: physicochemical
# Text: Thus, without being bound to any mechanism of action, it is surprising that rapid disintegration in the GI tract appears to be of importance to the invention.
smiles,measurement,setting,value
"CC[C@H]1OC(=O)[C@H](C)[C@@H](O[C@H]2C[C@@](C)(OC)[C@@H](O)[C@H](C)O2)[C@H](C)[C@@H](O[C@@H]2O[C@H](C)C[C@H](N(C)C)[C@H]2O)[C@](C)(O)C[C@@H](C)CN(C)[C@H](C)[C@@H](O)[C@]1(C)O [azithromycin, 9a-aza-9a-methyl-9-deoxo-9a-homoerythromycin A]",stability at low (acid) pH,on the order of the pH of stomach acid,unstable
same,stability on exposure to stomach juices,"stomach juices, acid pH",breaks down
